Data: patent publication US9688760B2, “Anti-leukocyte adhesion for the mitigation of potential adverse events caused by CD3-specific binding domains” (AMGEN RESEARCH (MUNICH) GMBH, priority 2013, dated 2017)
Where two headings read alike, the source gives them in different places.

Assays:
HUVEC = experiment: In vitro flow chamber: T cell-rolling and adhesion on HUVEC, short-term conditions; format: cell-based, human
Procedure: Human brain microvascular endothelial cells (HBMEC) (#1000, Sciencell Research Laboratories) or human umbilical vein endothelial cells (HUVEC) (#C-12200, Promocell) were used as endothelial cell-model. Cryopreserved HBMEC at passage 1 (>5×10^5 cells/ml) were first cultivated in fibronectin-coated Nunclon-treated 75 cm^2 cell culture flasks (#156499, Nunc) at 37° C. and 5% CO2 in a Heraeus Cytoperm 2 (Thermo Scientific) according to the manufacturer's instructions. Sub-cultivation of HBMEC was done with the Detach Kit (#C-41200, Promocell) consisting of HEPES-buffered balanced salt solution (#C-40000, Promocell), trypsin-EDTA solution (0.04%/0.03%) (#C-41000, Promocell) and trypsin neutralization solution (TNS, #C-41100, Promocell). Briefly, the medium was aspirated from the HBMEC-layer and cells were washed with 2 ml of HEPES-buffered balanced salt solution. Addition of 2 ml of trypsin-EDTA solution for 1-5 min at room temperature led to detachment of HBMEC from the flask bottom. Inactivation of trypsin-EDTA solution was performed by addition of 2 ml of trypsin neutralization solution to the cell suspension. Cells were centrifuged at 300 g for 4 min in a Heraeus Megafuge 40 (Thermo Scientific) and seeded at a cell density of 5×10^5 cells per gelatin-coated 75 cm^2 cell culture flask (#L7230, Biochrom). […]

patients [1] = experiment: Phase 1 clinical study: Blinatumomab with PPS co-medication; format: in vivo, human; conditions: for clinical response: with PPS co-medication
Procedure: In a phase 1 clinical study three patients were treated with Blinatumomab at an initial dose of 5 μg/m^2/day for 1 week followed by a dose escalation to 60 μg/m^2/day for additional 3 to 7 weeks.

patients [2] = experiment: Clinical studies of Blinatumomab in B-NHL and B-precursor ALL; format: in vivo, human
Description: Various clinical studies evaluating the safety and efficacy of Blinatumomab have been conducted both in B-NHL (Bargou et al. Science. 2008; 321:974-7) and B-precursor ALL (Topp et al. J Clin Oncol. 2011; 29:2493-8). […] These studies established clinical proof of concept for the high therapeutic potential of the bispecific single-chain antibody format in general and of Blinatumomab in special and validated its further development in B-NHL, ALL and CLL. Throughout these studies in B-NHL and B-precursor ALL several pharmacodynamic markers were assessed. […] It was characterized by a swift redistribution after start of infusion and any dose step, i.e. a fast disappearance of circulating T cells within the first 6-12 hours and a subsequent reappearance during the following 2-7 days where high initial B cell-counts correlated with decelerated kinetics of T cell-reappearance (FIG. 1A). This course seemed to be triggered by any significant dose changes of Blinatumomab rather than absolute serum concentrations. In addition, T cell-adhesiveness was measured throughout treatment week 1 by analyzing binding of soluble ICAM-1-Fc fusion proteins to LFA-1 on T cells. […] This finding coincided with T cell-redistribution and supported the concept of Blinatumomab-induced T cell-adhesion to endothelium during redistribution.

patients [3] = conditions: cited from earlier work
[4] = three patients with PPS co-medication

## Blinatumomab: recombinant CD19×CD3 bispecific scFv antibody consisting of four immunoglobulin variable domains assembled into a single polypeptide chain
HUVEC; T cells pre-incubated with 10 ng/ml Blinatumomab for 45 min, short-term (45 sec), 1 dyn/cm^2, control −AMG 103 283±82
  mean rolling velocity±SD: 237±45 μm/sec
HUVEC; pre-incubation with 10 ng/ml Blinatumomab, short-term conditions, vs −AMG 103
  increase of number of T cells firmly adhering to HUVEC: 2.6 fold
Patients [1]; Patient 109-036, Follicular Lymphoma grade I/II, after 57 days of civ infusion
  clinical response: complete response (CR)
Patients [1]; Patient 109-040, Lymphoplasmocytic Lymphoma, after 30 days of civ infusion
  clinical response: stable disease (SD)
Patients [1]; Patient 109-042, Follicular Lymphoma grade I/II, after 56 days of civ infusion
  clinical response: complete response (CR)
Patients [1]; patients receiving Blinatumomab without co-medication with PPS
  T cell-counts in peripheral blood 45 minutes after start of infusion or stepwise dose increase: rapid decline of T cell-counts
Patients [1]; [4]
  clinical response after 4 weeks of treatment: one patient had a stable disease
  clinical response after 8 weeks of treatment: Two out of the three patients achieved a complete response
Patients [2]; T cell-redistribution, irrespective of dose level
  time of disappearance of circulating T cells after start of infusion and any dose step: 6 to 12 h
Patients [2]; after peak
  time to return of LFA-1 binding affinity to baseline: ≤ 5 days
Patients [2]; binding of soluble ICAM-1-Fc to LFA-1 on T cells, treatment week 1
  time to peak of increased LFA-1 binding affinity to ICAM-1: ≤ 48 h
Patients [2]; following T cell disappearance
  time of reappearance of circulating T cells: 2 to 7 days
Patients [3]; B-NHL
  effect on malignant B cells in bone marrow and liver: clearance of malignant B cells from bone marrow and liver
Patients [3]; B-NHL, dose level of 0.015 mg/m^2/day
  clinical response: Partial and complete responses were first observed
Patients [3]; B-NHL, doses as low as 0.005 mg/m^2/day civ infusion over four weeks
  effect on B lymphoma cells in peripheral blood: complete and sustained elimination of B lymphoma cells in peripheral blood
Patients [3]; B-precursor ALL, minimal residual disease and relapsed or refractory, four-week civ infusions, 0.015 mg/m^2/day
  clinical response: hematological complete response
Patients [3]; majority of B-NHL patients, dose level of 0.06 mg/m^2/day
  clinical response: substantial tumor regression
